For assay [1], the target named is T1, full length p300 (Homo sapiens, UniProt Q09472).
T1 construct: Purified full length p300 protein was used for in vitro acetylation/butyrylation assay
Nature of the assay: In vitro p300 butyrylation assay (immunoblot). The class given is biochemical. The conditions noted are these: for effect on p300 catalysed butyrylation: FIG. 2 legend. The method, then:
(§1) Purified full length p300 protein was used for in vitro acetylation/butyrylation assay in presence/absence of different compounds. Acylation reactions were performed in reaction buffer (25 mM Tris-HCl PH 7.5, 100 mM NaCl, 0.1 mM EDTA, 1 mM DTT, 10% Glycerol, 1×PIC) with 100 ng/ml TSA, and 50 μM Butyryl-CoA/Acetyl COA. Xenopus histone H3 (500 ng) was used as the substrate and p300 (10,000 cpm activity) was used as the enzyme. Reactions were incubated in presence or absence of small molecule modulators (including compound of Formula I) for 10 minutes at 30° C., followed by initiation of the acetylation/butyrylation reaction by the addition of acetyl/butyryl CoA. After a further 10 minutes, reactions were stopped by addition of Laemmli buffer and samples were used for immunoblotting.
(§2) Immunoblotting with antibodies against acetylated H3K18, acetylated H3K9 and pan-butyryl lysine was performed to check for the relative inhibition of acetyl transferase and butyryl transferase activities of full length p300 by garcinol, isogarcinol and its different derivatives including compound of Formula I at different concentrations. FIG. 2i depicts the effect of garcinol, isogarcinol and two of its derivatives LTK-13 and LTK-14 on p300 catalysed acetyltransferase activity. […] FIG. 2ii depicts the effect of LTK-14 on acetylation and butyrylation catalysed by p300. Lane 1, enzyme alone; Lane 2-4, enzyme+LTK-14 at concentrations 500 nM, 2 μM and 10 μM, respectively. LTK-14 could inhibit acetylation at 10 μM concentration while butyrylation was inhibited at 2 μM concentration. FIG. 2iii depicts the effect of compound x on acetylation and butyrylation catalysed by p300. Lane 1, enzyme alone; Lane 2, enzyme+DMSO; Lane 3-6, enzyme+compound x at concentrations 10, 15, 20 and 25 μM, respectively.
For orientation: In western blotting, separated proteins are transferred to a membrane and probed.

The target of assay [2] is T1, full length p300. In words: In vitro p300 acetylation assay (immunoblot). The conditions noted are these: for effect on p300 catalysed acetyltransferase activity: FIG. 2i, immunoblot. Format: biochemical. As for the experimental part:
as §1, §2

The mark [3] stands for this setting: tested at 500 nM, 2 μM and 10 μM.

T1 sequence (Q09472 whole entry, species assumed): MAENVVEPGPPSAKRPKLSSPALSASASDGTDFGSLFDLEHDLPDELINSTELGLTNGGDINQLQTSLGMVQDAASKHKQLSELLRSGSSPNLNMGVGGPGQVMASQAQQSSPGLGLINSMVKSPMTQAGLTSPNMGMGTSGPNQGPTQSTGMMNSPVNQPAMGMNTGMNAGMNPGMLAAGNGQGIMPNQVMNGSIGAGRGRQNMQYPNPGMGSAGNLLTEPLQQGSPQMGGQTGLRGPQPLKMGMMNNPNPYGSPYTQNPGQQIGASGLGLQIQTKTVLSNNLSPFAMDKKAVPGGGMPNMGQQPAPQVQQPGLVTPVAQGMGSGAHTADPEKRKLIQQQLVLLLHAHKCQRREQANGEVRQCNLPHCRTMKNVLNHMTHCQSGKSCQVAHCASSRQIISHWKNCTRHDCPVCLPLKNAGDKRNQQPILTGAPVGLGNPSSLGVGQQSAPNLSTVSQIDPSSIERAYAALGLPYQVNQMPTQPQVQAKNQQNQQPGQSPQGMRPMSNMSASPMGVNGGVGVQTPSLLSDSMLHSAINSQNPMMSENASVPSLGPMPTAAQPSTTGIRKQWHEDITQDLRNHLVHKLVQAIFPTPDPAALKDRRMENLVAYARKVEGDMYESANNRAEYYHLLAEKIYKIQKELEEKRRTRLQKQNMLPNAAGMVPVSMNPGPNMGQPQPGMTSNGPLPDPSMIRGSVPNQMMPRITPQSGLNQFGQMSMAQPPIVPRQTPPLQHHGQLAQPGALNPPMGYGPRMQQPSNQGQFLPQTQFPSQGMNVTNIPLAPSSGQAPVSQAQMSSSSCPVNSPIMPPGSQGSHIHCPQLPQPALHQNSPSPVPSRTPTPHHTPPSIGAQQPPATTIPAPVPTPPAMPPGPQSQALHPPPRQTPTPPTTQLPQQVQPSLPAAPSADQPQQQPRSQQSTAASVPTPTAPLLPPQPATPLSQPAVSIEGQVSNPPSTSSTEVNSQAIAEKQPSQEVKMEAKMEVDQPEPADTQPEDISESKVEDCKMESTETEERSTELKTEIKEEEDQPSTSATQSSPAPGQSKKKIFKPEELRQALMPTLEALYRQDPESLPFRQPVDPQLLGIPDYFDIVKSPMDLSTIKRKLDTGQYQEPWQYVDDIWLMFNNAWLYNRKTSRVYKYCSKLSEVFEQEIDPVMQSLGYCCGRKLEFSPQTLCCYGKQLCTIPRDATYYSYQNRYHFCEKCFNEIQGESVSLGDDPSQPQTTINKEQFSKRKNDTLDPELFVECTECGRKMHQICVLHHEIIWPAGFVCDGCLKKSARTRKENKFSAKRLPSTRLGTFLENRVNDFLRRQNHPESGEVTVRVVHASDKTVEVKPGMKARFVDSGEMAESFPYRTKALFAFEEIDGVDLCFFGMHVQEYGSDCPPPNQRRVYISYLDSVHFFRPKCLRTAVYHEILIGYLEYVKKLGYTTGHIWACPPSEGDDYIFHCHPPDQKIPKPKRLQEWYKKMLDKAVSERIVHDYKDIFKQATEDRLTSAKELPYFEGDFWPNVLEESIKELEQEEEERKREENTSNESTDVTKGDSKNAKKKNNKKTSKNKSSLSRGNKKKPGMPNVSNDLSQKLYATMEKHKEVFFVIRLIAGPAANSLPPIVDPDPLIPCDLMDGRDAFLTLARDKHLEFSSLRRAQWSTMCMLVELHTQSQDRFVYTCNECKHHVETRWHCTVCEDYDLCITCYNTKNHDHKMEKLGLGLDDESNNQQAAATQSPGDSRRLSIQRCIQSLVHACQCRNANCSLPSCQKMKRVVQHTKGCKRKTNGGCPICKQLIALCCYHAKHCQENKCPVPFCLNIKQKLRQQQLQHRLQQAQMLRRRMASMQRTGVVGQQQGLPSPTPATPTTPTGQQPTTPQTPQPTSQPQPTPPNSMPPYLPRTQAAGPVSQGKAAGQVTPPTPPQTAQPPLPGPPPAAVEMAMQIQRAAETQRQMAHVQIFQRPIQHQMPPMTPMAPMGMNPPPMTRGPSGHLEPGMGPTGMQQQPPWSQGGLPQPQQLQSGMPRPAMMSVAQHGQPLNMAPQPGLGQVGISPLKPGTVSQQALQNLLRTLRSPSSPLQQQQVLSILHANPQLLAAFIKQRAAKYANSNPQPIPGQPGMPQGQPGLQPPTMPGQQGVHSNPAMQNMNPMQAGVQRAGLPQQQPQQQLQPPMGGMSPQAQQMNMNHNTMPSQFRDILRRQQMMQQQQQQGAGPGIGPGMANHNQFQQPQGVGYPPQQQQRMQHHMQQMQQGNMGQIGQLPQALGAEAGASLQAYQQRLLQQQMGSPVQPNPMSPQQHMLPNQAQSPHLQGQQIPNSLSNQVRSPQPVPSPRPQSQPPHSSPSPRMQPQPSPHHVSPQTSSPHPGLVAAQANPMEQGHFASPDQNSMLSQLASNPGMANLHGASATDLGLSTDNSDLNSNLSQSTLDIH

With `COc1ccc(C(=O)C2=C3OC(C)(C)[C@@H](CC=C(C)C)C[C@@]34C[C@@H](CC=C(C)C)C(C)(C)[C@@](CC=C(C)C)(C2=O)C4=O)cc1O` [LTK-14], the “effect on p300 catalysed butyrylation” value at full length p300 [1] is recorded as “can inhibit”. Besides, the “concentration at which butyrylation was inhibited” value on full length p300 [1] (setting [3]) came out at 2 µM. Besides, the “effect on p300 catalysed acetyltransferase activity” value on full length p300 [2] is “showed inhibitory effect”. On full length p300 [2] (setting [3]), the “concentration at which acetylation was inhibited” value turned out to be 10 µM.

For the molecule `CC(C)=CC[C@H]1C[C@@]23C[C@@H](CC=C(C)C)C(C)(C)[C@@](CC=C(C)C)(C(=O)C(C(=O)c4ccc(O)c(O)c4)=C2OC1(C)C)C3=O` [isogarcinol], at full length p300 [1], the “effect on p300 catalysed butyrylation” value is listed as “can inhibit”. For the same molecule, the “effect on p300 catalysed acetyltransferase activity” value on full length p300 [2] was “showed inhibitory effect”.

For the origin of these results see patent publication US20240269106A1, “SMALL MOLECULE MODULATOR TARGETING A RARE HISTONE MODIFICATION REGULATING ADIPOGENESIS AND PHARMACEUTICAL FORMULATION THEREOF” (COUNCIL OF SCIENTIFIC AND INDUSTRIAL RESEARCH AN INDIAN …, priority 2021, published 2024).
